Results: paper PMC1764755, “Human antimicrobial peptide LL-37 is present in atherosclerotic plaques and induces death of vascular smooth muscle cells: a laboratory study” (BMC Cardiovascular Disorders, 2006)

What was measured:
Format in all cases: cell-based
[1] = system: rat aorta smooth muscle cells; assay: Microscopy of cultured cells (Nomarski, DAPI, FITC-annexin V); conditions: for morphological changes: serum free DMEM
Description: Rat aorta smooth muscle cells were grown on methanol-cleansed coverslips in 6-well plates and incubated for 2 or 5 h in serum free DMEM with/without LL-37 (10 or 30 μg/ml) or camptothecin (5 μg/ml, Sigma-Aldrich). After culture, the coverslips were washed with ice-cold PBS containing 1 mM Ca^2+ and the cells were then stained at room temperature for 20 min with FITC-annexin V (20 μg/ml, Roche Molecular Biochemicals, Mannheim, Germany) and 4'6-diamino-2-phenyliondole dihydrochloride (DAPI) nucleic acid stain (100 nM, Molecular probes, Eugene, OR, USA). Thereafter, the cells were fixed with 1 % paraformaldehyde (Becton Dickinson, Bedford MA, U.S.A) in ice-cold PBS containing 1 mM Ca^2+. Fixation was initiated on ice for 15 min and continued at room temperature for 45 min. Cover slips were then mounted using ProLong AntiFade Reagent (Molecular Probes). Visual inspection and recording of images was performed using a Nikon Eclipse TE300 inverted fluorescence microscope equipped with a Hamamatsu C4742-95 cooled CCD camera, using a Plan Apochromat 60 × objective.

[2] = system: caspase-3 activity in rat aorta smooth muscle cells; assay: Caspase-3 activity (fluorometric immunosorbent enzyme assay, FIENA); conditions: LL-37 30 μg/ml, 1, 3 and 7 h, corrected for intact cells, n = 6, P < 0.05
Description: Confluent rat aorta smooth muscle cells cultured on 24-well plates were incubated for 1, 3 or 7 h in serum free DMEM in the absence (control) or presence of LL-37 (10 or 30 μg/ml). The caspase-3 activity was measured by using a fluorometric immunosorbent enzyme assay (FIENA, Roche Molecular Biochemicals) according to the manufacturer's instructions. Briefly, the caspase-3 from cellular lysates was captured by immobilized monoclonal anti-caspase-3 antibodies followed by addition of a substrate that is cleaved by caspase-3 generating a fluorescent compound. Fluorescence was then measured at 400 nm excitation and 505 nm emission. […] The caspase-3 activity values were therefore corrected in order to correspond to the fraction of intact cells using the formula […]
Where VIC is the caspase-3 activity of intact cells, VC is the caspase-3 activity of the sample, VL is the LDH activity of the sample and VLT is the total LDH activity of lysed cells. The caspase-3 activity is expressed as % of untreated controls.

[3] = system: human aortic smooth muscle cells; assay: Internucleosomal DNA fragmentation (Cell Death Detection ELISA); conditions: LL-37 30 μg/ml, 16 h, n = 7, P < 0.05
Description: (§1) Confluent rat or human aorta smooth muscle cells cultured on 24-well plates were incubated in serum free DMEM for 16 h in the absence (control) or presence of LL-37 (10 and 30 μg/ml). Internucleosomal DNA fragmentation was measured using a Cell Death Detection ELISA Kit (Roche Molecular Biochemicals) according to the manufacturer's instructions. In short, the cells were lysed in the culture wells and the DNA fragments in the lysate were bound to a microtiter plate coated with monoclonal anti-histone antibodies. The bound DNA fragments were then detected by peroxidase-conjugated monoclonal anti-DNA antibodies and 2,2'-azino-di- [3-ethylbenzthiazoline sulfonate]. Optical density was measured at 415 nm and is expressed as % of untreated controls.

[4] = system: rat aorta smooth muscle cells; assay: as above; conditions: 16 h, n = 7, P < 0.05
Description: as §1

[5] = system: rat aorta smooth muscle cells; assay: LDH release assay; conditions: LL-37 30 μg/ml, 1, 3 and 7 h, n = 7, P < 0.05
Description: Confluent rat aorta smooth muscle cells cultured on 24-well plates were incubated for 1, 3, or 7 h in serum free DMEM in the absence (control) or presence of LL-37 (10 or 30 μg/ml). The lactate dehydrogenase (LDH) activity released into the medium was measured by using the in vitro toxicology assay kit (Tox-7, Sigma-Aldrich) according to the manufacturer's instructions. In short, the medium was centrifuged at 2000 × g for 4 min. The LDH in the supernatants converted a tetrazolium dye, which was measured spectrophotometrically at 490 nm. The LDH activity is expressed as % of total LDH activity of lysed cells.

[6] = system: rat aorta smooth muscle cells; assay: Flow cytometry, FITC-annexin V / propidium iodide; conditions: LL-37 30 μg/ml
Description: Rat aorta smooth muscle cells were harvested from culture plates using trypsin/EDTA and washed in PBS once followed by a 2-h incubation in bicarbonate free MEM at 37°C using gentle end-over-end rotation. […] Staining was performed for 20 min on ice with FITC-annexin V (30 μg/ml) and propidium iodide (30 μg/ml, BD Pharmingen, San Diego, CA, USA) in calcium-containing PBS. Fluorescence-activated cell sorter (FACS) analysis was performed immediately (Becton Dickinson FACS Calibur instrument). 10,000 cells/sample were counted, and results were evaluated by using the Cell Quest software (Becton Dickinson). The same protocol was used for staining of human neutrophils incubated with LL-37 (30 μg/ml) for 30 or 120 min.

human neutrophils = assay: Flow cytometry, FITC-annexin V / propidium iodide; conditions: LL-37 30 μg/ml, 30 and 120 minutes, not shown
Description: Human neutrophils were isolated from heparinized blood from healthy donors using the Polymorph isolation kit (Nycomed Pharma AS Diagnostics, Oslo, Norway). Following the manufacturer's instructions, whole blood was layered carefully on neutrophil isolation medium and centrifuged at 400 × g for 30 min at room temperature. After centrifugation the following fractions were apparent: mononuclear cells, neutrophils and erythrocyte pellet. The polymorphonuclear leukocytes layer was suspended in PBS, followed by 10 min centrifugation at 350 × g; residual erythrocytes were removed by hypotonic lysis. After two washes in PBS with centrifugation for 5 min at 250 × g, the pellet was suspended in Minimum essential medium (MEM) and neutrophils were counted using a hemocytometer. The concentration of cells was adjusted to 10^7 cells/ml.
Rat aorta smooth muscle cells were harvested from culture plates using trypsin/EDTA and washed in PBS once followed by a 2-h incubation in bicarbonate free MEM at 37°C using gentle end-over-end rotation. […] Fluorescence-activated cell sorter (FACS) analysis was performed immediately (Becton Dickinson FACS Calibur instrument). 10,000 cells/sample were counted, and results were evaluated by using the Cell Quest software (Becton Dickinson). […]

Structure (SMILES)	morphological changes ([1]; LL-37 10 μg/ml, not shown)	FITC-annexin V binding of plasma membrane (microscopy) ([1]; LL-37 30 μg/ml, 2 or 5 h)	nuclear appearance (DAPI stain) ([1]; LL-37 30 μg/ml, 2 or 5 h)	morphological changes ([1]; LL-37 30 μg/ml, 2 or 5 h)	caspase-3 activity versus untreated controls [2]	DNA fragmentation compared to controls [3]	DNA fragmentation compared to controls ([4]; LL-37 10 μg/ml)	DNA fragmentation compared to controls ([4]; LL-37 30 μg/ml)	release of LDH into medium versus control [5]	increase in the propidium iodide fluorescence signal of the necrotic cells [6]	increase in FITC-annexin V fluorescence ([6]; 10 to 180 minutes)	leftmost peak of FITC-annexin V fluorescence histogram ([6]; 10 minutes)	leftmost peak of FITC-annexin V fluorescence histogram ([6]; 180 minutes)	increase in propidium iodide staining of the viable cells ([6]; within 10 minutes)	staining with propidium iodide and FITC-annexin V (human neutrophils)	cellular changes compared with those induced by LL-37 (30 μg/ml) ([1]; camptothecin 5 μg/ml, not shown)
CC[C@H](C)[C@H](NC(=O)[C@H](CCCCN)NC(=O)[C@H](CCC(=O)O)NC(=O)[C@H](CCCCN)NC(=O)[C@H](CO)NC(=O)[C@H](CCCCN)NC(=O)[C@H](CCCNC(=N)N)NC(=O)[C@H](Cc1ccccc1)NC(=O)[C@H](Cc1ccccc1)NC(=O)[C@H](CC(=O)O)NC(=O)CNC(=O)[C@H](CC(C)C)NC(=O)[C@@H](N)CC(C)C)C(=O)NCC(=O)N[C@@H](CCCCN)C(=O)N[C@@H](CCC(=O)O)C(=O)N[C@@H](Cc1ccccc1)C(=O)N[C@@H](CCCCN)C(=O)N[C@@H](CCCNC(=N)N)C(=O)N[C@H](C(=O)N[C@H](C(=O)N[C@@H](CCC(N)=O)C(=O)N[C@@H](CCCNC(=N)N)C(=O)N[C@H](C(=O)N[C@@H](CCCCN)C(=O)N[C@@H](CC(=O)O)C(=O)N[C@@H](Cc1ccccc1)C(=O)N[C@@H](CC(C)C)C(=O)N[C@@H](CCCNC(=N)N)C(=O)N[C@@H](CC(N)=O)C(=O)N[C@@H](CC(C)C)C(=O)N[C@H](C(=O)N1CCC[C@H]1C(=O)N[C@@H](CCCNC(=N)N)C(=O)N[C@H](C(=O)N[C@@H](CCC(=O)O)C(=O)N[C@@H](CO)C(=O)O)[C@@H](C)O)C(C)C)[C@@H](C)CC)C(C)C)[C@@H](C)CC [LL-37]	only small and inconsistent morphological changes	bound FITC-annexin V	nuclei of most cells appeared smaller with fragmented chromatin	progressive cell shrinkage and a rough appearance of the cell membrane	significant increase	statistically significant DNA fragmentation	statistically significant DNA fragmentation	statistically significant DNA fragmentation	significantly increased	about 1000 fold	15 fold	about 2 fluorescence units	~30 units	10 fold	weak staining	–
CC[C@@]1(O)C(=O)OCc2c1cc1n(c2=O)Cc2cc3ccccc3nc2-1 [camptothecin]	–	–	–	–	–	–	–	–	–	–	–	–	–	–	–	similar
